Key:
[1] = tested on: ETBR total protein; experiment: ETBR total protein in melanoma cell lines, Western blot; format: cell-based, human; conditions: 24 h
Method: (§1) Melanoma cell lines UACC-257X2.2, A2058, COLO 829, IPC-298 (ATCC) were treated with a BRAF inhibitor drug (“BRAFi”), specifically RG7204 at varying concentrations by adding the appropriate drug volume to cells in culture for 24 h on four-well dishes.
To test whether the increase in ETBR transcripts due to BRAFi treatment also results in any changes in ETBR total protein levels, Western blot experiments were performed on the same cell lines treated with BRAFi RG7204 as described above. For Western blotting, the following reagents were used: for detection of proteins: an anti-ETBR in-house generated monoclonal antibody 1H1.8.5, anti-Phospho-p44/42 MAPK (Erk1/2) (Thr202/Tyr204) antibody (9101, Cell Signaling Technology), anti-p44/42 MAPK (Erk1/2) antibody (9102, Cell Signaling Technology) and as controls, a rabbit polyclonal anti-GAPDH (glyceraldehyde-3-phosphate dehydrogenase) antibody (PA1-987; Affinity Bioreagents) and mouse monoclonal anti-β-Tubulin antibody (556321, BD Pharmingen). The results for UACC-257X2.2 are shown in FIG. 4B, the results for A2058 are shown in FIG. 8B, the results for COLO 829 are shown in FIG. 6B and the results for IPC-298 are shown in FIG. 10.
(§2) Melanoma cell lines A2058, COLO 829, SK23-MEL and IPC-298 (ATCC) were treated with a MEK inhibitor drug (“MEKi-973” or “MEKi-623”), at varying concentrations (0 μM, 0.01 μM, 0.1 μM or 1 μM) by adding the appropriate drug volume to cells in culture for 24 h on four-well dishes.
To test whether the increase in ETBR transcripts due to MEKi treatment also results in any changes in ETBR total protein levels, Western blot experiments were performed on cell lines COLO829 (BRAF^V600E), A2058 (BRAF^V600E), SK23-MEL (BRAF^WT/RAS^WT), or IPC-298 (BRAF^WT/RAS^[…]) which were treated with MEKi-973 as described above. For Western blotting, the following reagents were used: for detection of proteins: an anti-ETBR in-house generated monoclonal antibody 1H1.8.5, anti-Phospho-p44/42 MAPK (Erk1/2) (Thr202/Tyr204) antibody (9101, Cell Signaling Technology), anti-p44/42 MAPK (Erk1/2) antibody (9102, Cell Signaling Technology) and as controls, a rabbit polyclonal anti-GAPDH (glyceraldehyde-3-phosphate dehydrogenase) antibody (PA1-987; Affinity Bioreagents) and mouse monoclonal anti-β-Tubulin antibody (556321, BD Pharmingen). The results for A2058 are shown in FIG. 15A treated with MEKi-623 and 15B treated with MEKi-973, the results for COLO 829 are shown in FIG. 12A treated with MEKi-623 and 12B treated with MEKi-973, the results for SK23-MEL are shown in FIG. 19A treated with MEKi-623 and 19B treated with MEKi-973, and the results for IPC-298 are shown in FIG. 22A treated with MEKi-623 and 22B treated with MEKi-973.

[2] = tested on: ETBR transcript; experiment: PD study, ETBR transcript in A2058 tumors, Taqman, normalized to Hprt1; format: in vivo, mice; conditions: MEKi-973 5 mpk and 10 mpk orally once a day for 3 days
Method: A2058 or COLO 829 tumors were grown to an average size of approximately 200 mm^3, whereupon animals were randomized into groups of 5-6 each. For the BRAFi PD study, an appropriate vehicle control (Klucel LF) or RG7204 at doses of 10 mpk or 30 mpk were administered twice a day for 3 days (FIG. 27A). For the MEKi PD study, an appropriate vehicle control or MEKi-973 at doses of 5 mpk and 10 mpk were administered orally once a day for 3 days (FIG. 27B). Flash frozen tumors harvested at end of study were homogenized and processed for RNA and/or protein. Taqman assays were set up using reagents from Applied Biosystems (ABI, Foster City, Calif.) and assayed using 7500 Real Time PCR machine and software from ABI. Primer-probe sets were designed with primers flanking a fluorogenic probe dual labeled with Reporter dye FAM and quencher dye TAMRA. ETBR transcript levels in the tumors were normalized against transcript levels of reference genes such as Hprt1 (hypoxanthine phosphoribosyltransferase 1) or GAPDH (glyceraldehyde 3 phosphate dehydrogenase) using primer and probe sets that were specific to the human homologs of these genes.

[3] = tested on: ETBR surface protein; experiment: Surface ETBR protein in live melanoma cells, FACS; format: cell-based, human; conditions: 24 h
Method: as §1
(§3) To determine whether the observed increases in total ETBR protein level due to BRAFi treatment also results in an increase of ETBR surface protein levels, a fluorescence-activated cell sorting (FACS) analysis was performed. Cells were harvested in PBS with 2.5 mmol/L EDTA and washed in PBS buffer containing 1% FBS. All subsequent steps were carried out at 4° C. Cells were incubated for 1 hour with 3 μg/mL anti ETBR antibody Hu5E9v1, followed by anti-human IgG fluorescent detection reagent (A11013; Invitrogen). Cells were then analyzed with a FACS Calibur flow cytometer (BD Biosciences). The results for UACC-257X2.2 are shown in FIG. 4C, the results for A2058 are shown in FIG. 8C, and the results for COLO 829 are shown in FIG. 6C.
as §2
as §3, with “MEKi” for “BRAFi”, “performed as described above.” for “performed.”, “Biosciences).” for “Biosciences). The results for UACC-257X2.2 are shown in FIG. 4C, the results for A2058 are shown in FIG. 8C, and the results for COLO 829 are shown in FIG. 6C.”

[4] = tested on: ETBR transcript; experiment: ETBR transcript level in melanoma cell lines, Taqman, normalized to RPL19; format: cell-based, human; conditions: A2058 cells, 24 h
Method: as §1
(§4) To determine the effect of BRAFi on ETBR and control ribosomal protein L19 (RPL19) transcript levels, the following experiments were performed. Cells treated with RG7204 for 24 h were harvested from plates by scraping and processed for total RNA using Qiashredder and RNeasy mini kits (79654, 74104 from Qiagen, Valencia, Calif.). Taqman assays were set up using reagents from Applied Biosystems (ABI, Foster City, Calif.) and assayed using 7500 Real Time PCR machine and software from ABI. Primer-probe sets were designed with primers flanking a fluorogenic probe dual labeled with Reporter dye FAM and quencher dye TAMRA.
as §2
as §4, with “MEKi” for “BRAFi”, “ETBR” for “ETBR and control ribosomal protein L19 (RPL19)”, “performed as described above in Example 3.” for “performed.”, “either MEKi-973” for “RG7204”

O=C(c1ccc(F)c(F)c1Nc1ccc(I)cc1F)N1CC(O)([C@@H]2CCCCN2)C1 [MEKi-973, (S)-(3,4-difluoro-2-((2-fluoro-4-iodophenyl)amino)phenyl)(3-hydroxy-3-(piperidin-2yl)azetidin-1-yl)methanone]
ETBR total protein level vs untreated control cells ([1]; A2058 cells (BRAF V600E)): appears to increase the ETBR total protein levels | ETBR total protein level vs untreated control cells ([1]; COLO 829 cells (BRAF V600E)): appears to increase the ETBR total protein levels | ETBR total protein level vs untreated control cells ([1]; IPC-298 cells (BRAF wild-type, RAS mutant)): appears to increase the ETBR total protein levels | ETBR total protein level vs untreated control cells ([1]; SK23-MEL cells (BRAF WT/RAS WT)): appears to increase the ETBR total protein levels | ETBR mRNA in tumors vs control vehicle [2]: induces ETBR mRNA in vivo | surface level of ETBR protein vs untreated control cells ([3]; A2058 cells): appears to increase the surface levels of ETBR protein | surface level of ETBR protein vs untreated control cells ([3]; COLO 829 cells): appears to increase the surface levels of ETBR protein | surface level of ETBR protein vs untreated control cells ([3]; IPC-298 cells): appears to increase the surface levels of ETBR protein | surface level of ETBR protein vs untreated control cells ([3]; SK23-MEL cells): appears to increase the surface levels of ETBR protein | ETBR transcript vs untreated control cells [4]: appears to increase the ETBR transcripts

Reference: patent US20140341916A1, “THERAPEUTIC COMBINATIONS AND METHODS OF TREATING MELANOMA” (Genentech, Inc., priority 2011, published 2014)
